# Measured values from PubChem BioAssay AID1963870 (Molecular Pharmacology Branch, DTP, NCI, 2024).
# Test system: 292921-168-R-J2-PDC KRAS tumor spheroid viability
# Test: Anticancer human tumor 292921-168-R-J2-PDC patient-derived pancreatic carcinoma cell line growth inhibition [KRAS2]
# Conditions: spheroids with HUVEC and MSC; for IC50: curve of first compound; for viability, T/C: stronger effect = lower value
# Method in brief: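 Combination screen of spheroid viability in tumor-cell co-cultures with endothelial (HUVEC) and mesenchymal stem cell stroma. Each agent was tested in half-log dilutions, topping at clinical Cmax or at 10 microM without a known Cmax.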
# [1] = second compound 0.1 µM, first compound 0.0316 µM
# [2] = second compound 0.1 µM, first compound 0.1 µM
# [3] = second compound 0.1 µM, first compound 0.316 µM
# [4] = second compound 0.1 µM, first compound 1 µM
# [5] = second compound 0.1 µM, first compound 3.16 µM
# [6] = second compound 0.1 µM, first compound 10 µM
# [7] = second compound 0.316 µM, first compound 0.0316 µM
# [8] = second compound 0.316 µM, first compound 0.1 µM
# [9] = second compound 0.316 µM, first compound 0.316 µM
# [10] = second compound 0.316 µM, first compound 1 µM
# [11] = second compound 0.316 µM, first compound 3.16 µM
# [12] = second compound 0.316 µM, first compound 10 µM
# [13] = second compound 1 µM, first compound 0.0316 µM
# [14] = second compound 1 µM, first compound 0.1 µM
# [15] = second compound 1 µM, first compound 0.316 µM
# [16] = second compound 1 µM, first compound 1 µM
# [17] = second compound 1 µM, first compound 3.16 µM
# [18] = second compound 1 µM, first compound 10 µM
# [19] = second compound 3.16 µM, first compound 0.0316 µM
# [20] = second compound 3.16 µM, first compound 0.1 µM
# [21] = second compound 3.16 µM, first compound 0.316 µM
# [22] = second compound 3.16 µM, first compound 1 µM
# [23] = second compound 3.16 µM, first compound 3.16 µM
# [24] = second compound 3.16 µM, first compound 10 µM
# [25] = second compound 10 µM, first compound 0.0316 µM
# [26] = second compound 10 µM, first compound 0.1 µM
# [27] = second compound 10 µM, first compound 0.316 µM
# [28] = second compound 10 µM, first compound 1 µM
# [29] = second compound 10 µM, first compound 3.16 µM
# [30] = second compound 10 µM, first compound 10 µM
# [31] = second compound 0.1 µM, first compound 0.01 µM
# [32] = second compound 0.316 µM, first compound 0.01 µM
# [33] = second compound 1 µM, first compound 0.01 µM
# [34] = second compound 3.16 µM, first compound 0.01 µM
# [35] = second compound 10 µM, first compound 0.01 µM
# 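Also: drug exposure lasted seven days after spheroids formed for three days.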
# 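For viability, T/C in this document: percent of DMSO vehicle control viability which is 100%.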
smiles,measurement,setting,value
COC(=O)c1ccc2c(C(=Nc3ccc(N(C)C(=O)CN4CCN(C)CC4)cc3)c3ccccc3)c(O)[nH]c2c1 + C=CC(=O)N1CCN(c2nc(OCC3CCCN3C)nc3c2CCN(c2cccc4cccc(C)c24)C3)CC1CC#N,IC50,second compound 0.0316 µM,< 31.6 nM
same,IC50,second compound 0.1 µM,< 31.6 nM
same,IC50,second compound 0.316 µM,< 31.6 nM
same,IC50,second compound 1 µM,< 31.6 nM
same,IC50,second compound 3.16 µM,< 31.6 nM
same,"viability, T/C","second compound 0.0316 µM, first compound 0.0316 µM",33%
same,"viability, T/C","second compound 0.0316 µM, first compound 0.1 µM",26.1%
same,"viability, T/C","second compound 0.0316 µM, first compound 0.316 µM",16.8%
same,"viability, T/C","second compound 0.0316 µM, first compound 1 µM",10.2%
same,"viability, T/C","second compound 0.0316 µM, first compound 3.16 µM",3.16%
same,"viability, T/C","second compound 0.0316 µM, first compound 10 µM",0.05%
same,"viability, T/C",[1],26.5%
same,"viability, T/C",[2],22.9%
same,"viability, T/C",[3],15.5%
same,"viability, T/C",[4],9.38%
same,"viability, T/C",[5],5.32%
same,"viability, T/C",[6],0.11%
same,"viability, T/C",[7],23.6%
same,"viability, T/C",[8],19.6%
same,"viability, T/C",[9],13.4%
same,"viability, T/C",[10],7.92%
same,"viability, T/C",[11],2.44%
same,"viability, T/C",[12],0.07%
same,"viability, T/C",[13],16.7%
same,"viability, T/C",[14],16.4%
same,"viability, T/C",[15],9.48%
same,"viability, T/C",[16],6.16%
same,"viability, T/C",[17],0.43%
same,"viability, T/C",[18],0.03%
same,"viability, T/C",[19],0.16%
same,"viability, T/C",[20],0.08%
same,"viability, T/C",[21],0.07%
same,"viability, T/C",[22],0.05%
same,"viability, T/C",[23],0.04%
same,"viability, T/C",[24],0.05%
COc1cc(Nc2ncc3c(n2)-c2ccc(Cl)cc2C(c2c(F)cccc2OC)=NC3)ccc1C(=O)O + COc1cc2nc(C)nc(NC(C)c3cc(N)cc(C(F)(F)F)c3)c2cc1OC1CCOC1,IC50,second compound 0.1 µM,< 31.6 nM
same,IC50,second compound 0.316 µM,< 31.6 nM
same,IC50,second compound 1 µM,< 31.6 nM
same,IC50,second compound 3.16 µM,< 31.6 nM
same,IC50,second compound 10 µM,< 31.6 nM
same,"viability, T/C",[1],28.8%
same,"viability, T/C",[2],23.7%
same,"viability, T/C",[3],27.9%
same,"viability, T/C",[4],25.8%
same,"viability, T/C",[5],19.4%
same,"viability, T/C",[6],16.9%
same,"viability, T/C",[7],26.3%
same,"viability, T/C",[8],21.9%
same,"viability, T/C",[9],27.4%
same,"viability, T/C",[10],22.1%
same,"viability, T/C",[11],22.3%
same,"viability, T/C",[12],14.9%
same,"viability, T/C",[13],25%
same,"viability, T/C",[14],24.5%
same,"viability, T/C",[15],25.6%
same,"viability, T/C",[16],23.4%
same,"viability, T/C",[17],18.5%
same,"viability, T/C",[18],13.6%
same,"viability, T/C",[19],23.8%
same,"viability, T/C",[20],20.5%
same,"viability, T/C",[21],20.8%
same,"viability, T/C",[22],22.1%
same,"viability, T/C",[23],18.5%
same,"viability, T/C",[24],14%
same,"viability, T/C",[25],15.1%
same,"viability, T/C",[26],11.2%
same,"viability, T/C",[27],11.6%
same,"viability, T/C",[28],11.9%
same,"viability, T/C",[29],13.6%
same,"viability, T/C",[30],12.3%
Cn1ncnc1[C@H]1c2n[nH]c(=O)c3cc(F)cc(c23)N[C@@H]1c1ccc(F)cc1 + CNCc1ccccc1-c1csc(C(C)Nc2nc(C)nc3cc(OC)c(OC)cc23)c1,IC50,second compound 0.1 µM,> 100 nM
same,IC50,second compound 0.316 µM,> 100 nM
same,IC50,second compound 1 µM,24 nM
same,IC50,second compound 3.16 µM,< 0.316 nM
same,IC50,second compound 10 µM,< 0.316 nM
same,"viability, T/C","second compound 0.1 µM, first compound 0.000316 µM",87.7%
same,"viability, T/C","second compound 0.1 µM, first compound 0.001 µM",87.8%
same,"viability, T/C","second compound 0.1 µM, first compound 0.00316 µM",84.2%
same,"viability, T/C",[31],81.3%
same,"viability, T/C",[1],75.9%
same,"viability, T/C",[2],63.5%
same,"viability, T/C","second compound 0.316 µM, first compound 0.000316 µM",77.3%
same,"viability, T/C","second compound 0.316 µM, first compound 0.001 µM",84.3%
same,"viability, T/C","second compound 0.316 µM, first compound 0.00316 µM",79.9%
same,"viability, T/C",[32],69.2%
same,"viability, T/C",[7],65.5%
same,"viability, T/C",[8],56.9%
same,"viability, T/C","second compound 1 µM, first compound 0.000316 µM",57.3%
same,"viability, T/C","second compound 1 µM, first compound 0.001 µM",55.7%
same,"viability, T/C","second compound 1 µM, first compound 0.00316 µM",57.6%
same,"viability, T/C",[33],52.6%
same,"viability, T/C",[13],48.6%
same,"viability, T/C",[14],41.4%
same,"viability, T/C","second compound 3.16 µM, first compound 0.000316 µM",0.07%
same,"viability, T/C","second compound 3.16 µM, first compound 0.001 µM",0.08%
same,"viability, T/C","second compound 3.16 µM, first compound 0.00316 µM",0.08%
same,"viability, T/C",[34],0.07%
same,"viability, T/C",[19],0.08%
same,"viability, T/C",[20],0.13%
same,"viability, T/C","second compound 10 µM, first compound 0.000316 µM",0.08%
same,"viability, T/C","second compound 10 µM, first compound 0.001 µM",0.08%
same,"viability, T/C","second compound 10 µM, first compound 0.00316 µM",0.48%
same,"viability, T/C",[35],0.87%
same,"viability, T/C",[25],0.35%
same,"viability, T/C",[26],0.15%
CC1COCCN1c1cc(-c2ccnn2C)c2ccnc(-c3ccn[nH]3)c2n1 (stereo not given) + CNCc1ccccc1-c1csc(C(C)Nc2nc(C)nc3cc(OC)c(OC)cc23)c1,IC50,second compound 0.1 µM,< 10 nM
same,IC50,second compound 0.316 µM,< 10 nM
same,IC50,second compound 1 µM,< 10 nM
same,IC50,second compound 3.16 µM,< 10 nM
same,IC50,second compound 10 µM,< 10 nM
same,"viability, T/C",[31],39.3%
same,"viability, T/C",[1],21%
same,"viability, T/C",[2],15.5%
same,"viability, T/C",[3],13.1%
same,"viability, T/C",[4],15.2%
same,"viability, T/C",[5],16.1%
same,"viability, T/C",[32],34.4%
same,"viability, T/C",[7],19.7%
same,"viability, T/C",[8],12.7%
same,"viability, T/C",[9],12.9%
same,"viability, T/C",[10],14.1%
same,"viability, T/C",[11],14.8%
same,"viability, T/C",[33],28.9%
same,"viability, T/C",[13],16.3%
same,"viability, T/C",[14],11.1%
same,"viability, T/C",[15],11.3%
same,"viability, T/C",[16],13.5%
same,"viability, T/C",[17],12.8%
same,"viability, T/C",[34],0.07%
same,"viability, T/C",[19],0.07%
same,"viability, T/C",[20],0.05%
same,"viability, T/C",[21],0.08%
same,"viability, T/C",[22],0.1%
same,"viability, T/C",[23],0.16%
same,"viability, T/C",[35],0.11%
same,"viability, T/C",[25],0.09%
same,"viability, T/C",[26],0.27%
same,"viability, T/C",[27],0.08%
same,"viability, T/C",[28],0.09%
same,"viability, T/C",[29],0.15%
COC(=O)c1ccc2c(C(=Nc3ccc(N(C)C(=O)CN4CCN(C)CC4)cc3)c3ccccc3)c(O)[nH]c2c1 + COc1cc2nc(C)nc(NC(C)c3cc(N)cc(C(F)(F)F)c3)c2cc1OC1CCOC1,IC50,second compound 0.1 µM,856 nM
same,IC50,second compound 0.316 µM,620 nM
same,IC50,second compound 1 µM,382 nM
same,IC50,second compound 3.16 µM,221 nM
same,IC50,second compound 10 µM,31.9 nM
same,"viability, T/C",[1],115%
same,"viability, T/C",[2],103%
same,"viability, T/C",[3],83%
same,"viability, T/C",[4],49.4%
same,"viability, T/C",[5],4.07%
same,"viability, T/C",[6],0.28%
same,"viability, T/C",[7],95.9%
same,"viability, T/C",[8],96.6%
same,"viability, T/C",[9],62.1%
same,"viability, T/C",[10],37.3%
same,"viability, T/C",[11],19.2%
same,"viability, T/C",[12],0.44%
same,"viability, T/C",[13],103%
same,"viability, T/C",[14],97.5%
same,"viability, T/C",[15],47%
same,"viability, T/C",[16],29.5%
same,"viability, T/C",[17],4.33%
same,"viability, T/C",[18],0.36%
same,"viability, T/C",[19],83.9%
same,"viability, T/C",[20],61.1%
same,"viability, T/C",[21],46.5%
same,"viability, T/C",[22],25.1%
same,"viability, T/C",[23],6.39%
same,"viability, T/C",[24],0.44%
same,"viability, T/C",[25],49%
same,"viability, T/C",[26],44.2%
same,"viability, T/C",[27],22.8%
same,"viability, T/C",[28],12.8%
same,"viability, T/C",[29],1.24%
same,"viability, T/C",[30],0.24%
